Experimental data taken from patent US10597388B2, “Pyridazinone herbicides” (FMC CORPORATION, priority 2014, dated 2020).

Experiments:
Assay in all cases: Test E greenhouse herbicide test, pre- and postemergence
Type in all cases: in vivo
Settings in all cases: Preemergence
[1] = system: sandbur (southem sandbur, Cenchrus echinatus)
In short: (§1)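 Compounds in a non-phytotoxic solvent mixture with surfactant were applied preemergence to seeds in silt loam soil and postemergence to 2-18 cm plants (1- to 4-leaf stage) in peat-based medium. After 14 to 21 d in a greenhouse, injury was rated visually against untreated controls on a 0 (no effect) to 100 (complete control) scale.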

[2] = system: nightshade (eastern black nightshade, Solanum ptycanthum)
In short: as §1

[3] = system: dayflower (Virginia (VA) dayflower, Commelina virginica)
In short: as §1

[4] = system: velvetleaf (Abutilon theophrasti)
In short: as §1

[5] = system: crabgrass, large (large crabgrass, Digitaria sanguinalis)
In short: as §1

[6] = system: surinam grass (Brachiaria decumbens)
In short: as §1

[7] = system: momingglory (Ipomoea coccinea)
In short: as §1

[8] = system: panicum, fall (fall panicum, Panicum dichotomiflorum)
In short: as §1

[9] = system: barnyardgrass (Echinochloa crus-galli)
In short: as §1

[10] = system: ragweed (common ragweed, Ambrosia elatior)
In short: as §1

[11] = system: pigweed, palmer (palmer pigweed, Amaranthus palmeri)
In short: as §1

corn (Zea mays) = system: corn (Zea mays)
In short: as §1

[12] = system: lambsquarters (Chenopodium album)
In short: as §1

[13] = system: foxtail, giant (giant foxtail, Setaria faberii)
In short: as §1

[14] = system: goosegrass (Eleusine indica)
In short: as §1

[15] = system: arrowleaf sida (Sida rhombifolia)
In short: as §1

[16] = 62 g ai/ha, scale 0 to 100 (0 no effect, 100 complete control)
[17] = 125 g ai/ha, scale 0 to 100 (0 no effect, 100 complete control)
[18] = 31 g ai/ha, scale 0 to 100, 0 no effect, 100 complete control
[19] = 250 g ai/ha, visual, scale 0 no effect to 100 complete control

C#CCOC(=O)Oc1c(C)nn(C)c(=O)c1-c1c(C)sc2ccc(C)cc12 [Compound 87]
70: Plant response rating, Foxtail, Giant [13, 17] | Plant response rating, Arrowleaf Sida [15, 17]
60: Plant response rating, Velvetleaf [4, 16] | Plant response rating, Goosegrass [14, 17] | Plant response rating, Arrowleaf Sida [15, 16]
0: Plant response rating, Dayflower, VA [3, 16] | Plant response rating, Dayflower, VA [3, 18] | Plant response rating, Velvetleaf [4, 18] | Plant response rating, Crabgrass, Large [5, 16] | Plant response rating, Crabgrass, Large [5, 18] | Plant response rating, Barnyardgrass [9, 16] | Plant response rating, Barnyardgrass [9, 18] | Plant response rating, Pigweed, Palmer [11, 18] | Plant response rating, Corn (corn (Zea mays); [16]) | Plant response rating, Corn (corn (Zea mays); [18]) | Plant response rating, Goosegrass [14, 16] | Plant response rating, Goosegrass [14, 18] | Plant response rating, Arrowleaf Sida [15, 18]
100: Plant response rating, Panicum, Fall [8, 17] | Plant response rating, Ragweed [10, 19] | Plant response rating, Lambsquarters [12, 16] | Plant response rating, Lambsquarters [12, 17] | Plant response rating, Lambsquarters [12, 18] | Plant response rating, Lambsquarters [12, 19]
98: Plant response rating, Nightshade [2, 17] | Plant response rating, Nightshade [2, 19] | Plant response rating, Panicum, Fall [8, 19] | Plant response rating, Ragweed [10, 17] | Plant response rating, Ragweed [10, 18]
65: Plant response rating, Sandbur [1, 16] | Plant response rating, Crabgrass, Large [5, 17] | Plant response rating, Crabgrass, Large [5, 19] | Plant response rating, Pigweed, Palmer [11, 16] | Plant response rating, Foxtail, Giant [13, 16]
10: Plant response rating, Dayflower, VA [3, 17] | Plant response rating, Surinam Grass [6, 18] | Plant response rating, Barnyardgrass [9, 17]
90: Plant response rating, Nightshade [2, 16] | Plant response rating, Velvetleaf [4, 17] | Plant response rating, Morningglory [7, 19] | Plant response rating, Panicum, Fall [8, 16] | Plant response rating, Pigweed, Palmer [11, 19]
80: Plant response rating, Surinam Grass [6, 17] | Plant response rating, Arrowleaf Sida [15, 19]
15: Plant response rating, Surinam Grass [6, 16] | Plant response rating, Corn (corn (Zea mays); [19])
50: Plant response rating, Nightshade [2, 18] | Plant response rating, Morningglory [7, 17]
20: Plant response rating, Morningglory [7, 18] | Plant response rating, Corn (corn (Zea mays); [17])
25: Plant response rating, Sandbur [1, 18] | Plant response rating, Foxtail, Giant [13, 18]
35: Plant response rating, Dayflower, VA [3, 19] | Plant response rating, Morningglory [7, 16] | Plant response rating, Barnyardgrass [9, 19]
95: Plant response rating, Velvetleaf [4, 19] | Plant response rating, Panicum, Fall [8, 18] | Plant response rating, Ragweed [10, 16] | Plant response rating, Foxtail, Giant [13, 19]
75: Plant response rating, Sandbur [1, 17] | Plant response rating, Surinam Grass [6, 19] | Plant response rating, Pigweed, Palmer [11, 17] | Plant response rating, Goosegrass [14, 19]
85: Plant response rating, Sandbur [1, 19]
